Data on 3 compounds can be found in US7892755B2, “Screening method” (Takeda Pharmaceutical Company Limited, priority 2004, dated 2011).

Structures are written as SMILES.

Type in all cases: cell-based
In experiment [1] the test system is control CHO-K1 cells. Nature of the experiment: Changes in intracellular calcium levels on FLIPR, control CHO-K1 cells with only expression vector pAKKO-111H. On the procedure:
(§1) The CHO-K1 cell line (purchased from ATCC) was incubated in HAM F-12 medium (Invitrogen) supplemented with 10% fetal calf serum, unless otherwise indicated. On the day before transfection, the cells were inoculated at 4.5×10^5/10 cm^2 and incubated at 37° C. for 15 hours or more in a CO2 incubator adjusted to 5% CO2 concentration. Using Lipofectamine reagent (Invitrogen), transfection was performed according to modifications of the procedure attached to the reagent. When a 6-well plate was used as the incubator, the transfection was performed as follows. Two tubes each having a 1.5 ml volume were prepared and 100 μl each of Opti-MEM medium (Invitrogen) was dispensed in each tube. Next, 1 μg of the GPR35 expression vector obtained in REFERENCE EXAMPLE 1 and 0.5 μg of Gα15 expression vector (Guthrie cDNA Resource Center) were incorporated into one tube and in another tube, 6 μl of Lipofectamine reagent was charged, which were then mixed together. The mixture was settled for 20 minutes at room temperature. To the solution, 800 μl of Opti-MEM medium was added and the resulting solution mixture for transfection was added to the CHO-K1 cells, which had been previously washed with Opti-MEM medium. The cells were then incubated in a CO2 incubator for 6 hours. After the incubation, the cells were rinsed with PBS (Invitrogen), then detached by 0.05% trypsin-EDTA solution (Invitrogen) and recovered by centrifugal operation. The cells obtained were counted and diluted to 5×10^4 cells per 100 μl of the medium. The dilution was dispensed to a black walled 96-well plate (Costar) at 100 μl per well, followed by incubation overnight in a CO2 incubator. Various test samples were added to the CHO-K1 cells, in which the receptor was transiently expressed, by the transfection procedure described above, whereby changes in intracellular calcium levels were assayed on a FLIPR (Molecular Device).
(§2) To assay the changes in intracellular calcium levels on FLIPR, the following pretreatment was made. First, an assay buffer was prepared to add fluorescence dye Fluo-3AM (DOJIN) to the cells, or to wash the cells immediately before the FLIPR assay. A solution was prepared by adding 20 ml of 1M HEPES (pH 7.4) (DOJIN) to 1000 ml of HBSS (Invitrogen) (hereinafter HBSS/HEPES solution). To the solution, there was added 10 ml of a solution obtained by dissolving 710 mg of Probenecid (Sigma) in 5 ml of 1N NaOH and further adding 5 ml of HBSS/HEPES solution thereto and mixing them. The resulting solution was used as an assay buffer. Next, 50 μg of Fluo-3AM was dissolved in 21 μl of DMSO (DOJIN), and an equal volume of 20% pluronic acid (Molecular Probes) was added to the solution. After mixing them, the mixture was added to 10.6 ml of an assay buffer supplemented with 105 μl of fetal calf serum to give a fluorescence dye solution. After the medium for the transfected CHO-K1 cells was removed, the fluorescence dye solution was immediately dispensed at 100 μl each per well and incubation was carried out in a CO2 incubator for an hour to take up the fluorescence dye into the cells. The incubated cells were washed with the assay buffer described above and set on FLIPR. Test samples to be added to the receptor-expressed CHO-K1 cells were prepared using the assay buffer and simultaneously set on FLIPR.
After the pretreatment described above was made, changes in intracellular calcium levels by the addition of various test samples were assayed on FLIPR. […]

In experiment [2] the target is T1, GPR35 (Homo sapiens, UniProt Q9HC97, S294R). Nature of the experiment: Changes in intracellular calcium levels on FLIPR, CHO-K1 cells transiently co-expressing GPR35 and Gα15. The conditions noted are these: Fluo-3AM, 0.3-10 μM shown for DNQX and ellagic acid (FIG. 1, 2). More on the design: The resulting fragment (ca. 1 kb) was introduced into vector pAKKO-111; expressed in transfected cells; host or cells: CHO-K1 (ATCC), transient transfection. The protocol: as §1, §2
T1 sequence (Q9HC97 whole entry S294R, the tested form may be a part): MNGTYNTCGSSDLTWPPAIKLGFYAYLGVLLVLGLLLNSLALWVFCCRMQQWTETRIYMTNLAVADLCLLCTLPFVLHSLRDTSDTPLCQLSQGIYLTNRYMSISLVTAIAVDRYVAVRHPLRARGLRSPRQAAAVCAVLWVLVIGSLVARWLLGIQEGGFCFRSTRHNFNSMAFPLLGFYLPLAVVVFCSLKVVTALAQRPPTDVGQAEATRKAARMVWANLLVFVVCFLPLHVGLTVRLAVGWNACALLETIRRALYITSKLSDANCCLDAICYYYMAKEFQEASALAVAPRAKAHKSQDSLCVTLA
After the pretreatment described above was made, changes in intracellular calcium levels by the addition of various test samples were assayed on FLIPR.
For orientation: Calcium assays in cells follow changes in intracellular calcium, usually with a dye or a luminescent sensor.

Experiment [3] concerns the target T2, mouse GPR35 (Mus musculus, UniProt Q9ES90, D300Y/S286F).
T2 construct: the digestion product was inserted into plasmid vector pAKKO-111H; expressed in transfected cells; host or cells: CHO-K1 cells
Nature of the experiment: Reactivity on FLIPR, CHO-K1 cells transfected with mouse GPR35 expression vector. The protocol:
The CHO-K1 cell line (purchased from ATCC) was incubated in HAM F-12 medium (Invitrogen) supplemented with 10% fetal calf serum, unless otherwise indicated. On the day before transfection, the cells were inoculated at 4.5×10^5/10 cm^2 and incubated at 37° C. for 15 hours or more in a CO2 incubator adjusted to 5% CO2 concentration. Using Lipofectamine reagent (Invitrogen), transfection was performed according to modifications of the procedure attached to the reagent. When a 6-well plate was used as the incubator, the transfection was performed as follows. Two tubes each having a 1.5 ml volume were prepared and 100 μl each of Opti-MEM medium (Invitrogen) was dispensed in each tube. […] The cells obtained were counted and diluted to 5×10^4 cells per 100 μl of the medium. […]
To assay the changes in intracellular calcium levels on FLIPR, the following pretreatment was made. First, an assay buffer was prepared to add fluorescence dye Fluo-3AM (DOJIN) to the cells, or to wash the cells immediately before the FLIPR assay. […] After mixing them, the mixture was added to 10.6 ml of an assay buffer supplemented with 105 μl of fetal calf serum to give a fluorescence dye solution. […]

Experiment [4] concerns the target T1, GPR35. Nature of the experiment: Changes in intracellular calcium levels on FLIPR, CHO cell line stably co-expressing human GPR35 and Gα16. More on the design: expressed in transfected cells. On the procedure:
The Gα16-stably expressed cell line (Gα16/CHO cell line) as a host cell was prepared by transfecting the Gα16 expression vector (Guthrie cDNA Resource Center) into CHO cells in a conventional manner and incubating at 37° C. under 5% CO2 in αMEM medium (containing nucleic acid; Invitrogen) supplemented with 10% fetal calf serum (Invitrogen), 50 units/ml penicillin/50 ug/ml streptomycin (CAMBREX) and 1 mg/ml geneticin (Invitrogen). The cells that were incubated for 2 days in αMEM medium (containing nucleic acid) supplemented only with 10% fetal calf serum charged in a 75 cm^2 flask were used for the transfection. The transfection was carried out using Lipofectamine reagent (Invitrogen) by a modification of the protocol attached to the reagent. First, 2 centrifuge tubes each having a 15 ml volume were prepared and 600 μl each of Opti-MEM medium (Invitrogen) was dispensed in each tube. Next, 4.8 μg of the expression vector was charged in one tube and in another tube 36 μl of Lipofectamine reagent was charged, which were mixed together. The mixture was settled for 20 minutes at room temperature. […] The cells obtained were counted and diluted with αMEM medium (containing no nucleic acid; Invitrogen) supplemented only with 10% dialyzed fetal calf serum to have 0.3, 1.5 and 7.5 cells per 100 μl of the medium. […]

T2 sequence (Q9ES90 whole entry S286F/D300Y): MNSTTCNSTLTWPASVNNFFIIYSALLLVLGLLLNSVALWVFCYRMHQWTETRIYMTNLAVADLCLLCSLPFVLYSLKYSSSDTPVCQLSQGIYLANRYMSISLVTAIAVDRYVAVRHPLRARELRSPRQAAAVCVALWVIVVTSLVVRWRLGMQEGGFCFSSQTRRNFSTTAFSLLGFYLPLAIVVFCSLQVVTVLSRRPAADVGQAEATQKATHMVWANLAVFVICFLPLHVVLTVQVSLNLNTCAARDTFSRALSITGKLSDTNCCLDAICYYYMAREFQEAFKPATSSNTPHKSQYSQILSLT

`O=C1N=c2cc([N+](=O)[O-])cc([N+](=O)[O-])c2=NC1=O` [5,7-dinitroquinoxaline-2,3-dione]: in experiment [1], the “response (increased intracellular calcium levels) in control cells” value is given as “not observed”. Besides, the “response (increased intracellular calcium levels)” value in experiment [2] is given as “dose-dependently responded (increased intracellular calcium levels)”.
Turning to `N#Cc1cc2c(cc1[N+](=O)[O-])=NC(=O)C(=O)N=2` [6-cyano-7-nitroquinoxaline-2,3-dione], in experiment [1], the “response (increased intracellular calcium levels) in control cells” value is reported as “not observed”. Further, the “response (increased intracellular calcium levels)” value in experiment [2] is reported as “dose-dependently responded (increased intracellular calcium levels)”.
For `O=c1oc2c(O)c(O)cc3c(=O)oc4c(O)c(O)cc1c4c23` [ellagic acid], in experiment [1], the “response (increased intracellular calcium levels) in control cells” value is “not observed”. For the same compound, the “reactivity of mouse GPR35 (FLIPR)” value in experiment [3] is on record as “responsive”. In addition, the intracellular calcium levels result in experiment [4] is recorded as “increased”. In addition, in experiment [2], the “response (increased intracellular calcium levels)” value is listed as “dose-dependently responded (increased intracellular calcium levels)”.
